# Source: the OligoGym collection
# “And” between values parts separate entries of the source, which are not always exact repeats. Equal entries are not always repeated. These antisense oligonucleotides have a phosphorothioate backbone; sugars and methylation of C are not fully specified.
# Target: AKT2
# Conditions: ASO
# Also: test concentration or dose not given here.
row,Sequence,remaining target (mRNA or protein) (fraction of control)
1,ACCAGGATGACTTTGCCA,0.25
2,ACTCCATCACAAAGCACA,0.2
3,ACTGTGTGAGCGACTTCA,0.38
4,AGTTGATGCTGAGGAAGA,0.51
5,ATGACAAAGGTGTTGGGT,0.29
6,ATGACCTCCTTGGCATCG,0.18
7,ATGATGACTTCCTTTCGC,0.43
8,CAAGGAGTTTGAGATAGT,0.36
9,CAGTCGTGGAGGAGTCAC,0.42
10,CCAATGAAGGAGCCGTCG,≥ 1
11,CCAGCCTTCTTTGATGAC,0.25
12,CCCGCTCCTCTGTGAAGA,0.08
13,CCGCATCCACTCCTCCCT,0.12
14,CCGCTGCTTGAGGCTGTT,0.29
15,CGTGCGTCCTCTGCGTGG,0.14
16,CTACGGAGAAGTTGTTTA,0.42
17,CTCCTTGGCATCGCTGGG,0.29
18,CTTGAGGCTGTTGGCGAC,0.18

row,Sequence,remaining target (mRNA or protein) (fraction of control)
1,CTTTGATGACAGACACCT,0.23
2,GAGCCACACTTGTAGTCC,0.11
3,GAGGCACCGTGGACAGGG,0.33
4,GATGGACTGGGCGGTAAA,0.22
5,GCCTTGCTGACCGCCACT,0.18
6,GGGTGCCTGGTGTTCTGG,0.3
7,GTCTTGATGTATTCACCA,0.52
8,GTGAGCGACTTCATCCTT,0.25
9,GTGATGGCAGCGAGCGTG,0.38
10,TCGGTGACTGTGTGAGCG,0.34
11,TGACAGACACCTCATTCA,0.15
12,TGGACAGGGCACAGTCTC,0.3
13,TGGCATTCTGCTACGGAG,0.18
14,TGGTCACTTTAGCCCGTG,≥ 1
15,TGTGATTGTGATGGACTG,0.3
16,TGTGGAGCCAGCCTTCTT,0.28
17,TTCCATCTCCTCAGTCGT,0.19

# Target: IL1R1
# Conditions: ASO
row,Sequence,remaining target (mRNA or protein) (fraction of control)
1,AACTTCTCCATGCTACCCGA,0.75
2,AGATGCCTTGCGTTGGCTGC,0.5
3,AGGGCTGCGGCGGCTCCACT,0.75
4,AGTAACACTTTCATATTCTT,0.75
5,AGTCAAAGGAAGTTCACGGG,0.5
6,AGTCCTCCGTCTCCTGCAAC,0.75
7,AGTGCTACGGTGCGGGCGCG,0.75
8,CACCGAGGAGCAGGCGCGGC,0.75
9,CACTGCAACCTCCGTCTCCC,0.75
10,CACTTAGCCGTGCGTTGGTG,0.5
11,CATAACCTGGCCTGCAACGC,0.75
12,CATTCCATGAACTCTGCAAG,0.75
13,CATTCCTGCCGCTCCCTGGG,0.75
14,CCCTTCCATAAATGAACAGC,0.75
15,CCCTTGGGCTGTGGATGACT,0.75
16,CCTCCACCCACGCTTATCCA,0.29
17,CCTCCAGGGCTGCGGCGGCT,0.75
18,CGCGCTCGGCTCCTCCCGGC,0.75
19,CGTGCCAGTGTGGAGTGAGG,0.23

row,Sequence,remaining target (mRNA or protein) (fraction of control)
1,CTCTCCACCGAGGAGCAGGC,0.75
2,CTTGGAGAAGGCCTTGTCTT,0.75
3,CTTTCATATTCTTCTTGGAG,0.75
4,GAAACAAATAAGTCTGAGTA,0.75
5,GCAAAGCGGGCCCAGGAGAA,0.3
6,GCAACGCCATAAGACAGGAG,0.75
7,GCCACCACAGCCTCTCCCTC,0.42
8,GCGGGATGACAGAAGAGCGG,0.75
9,GGAACTGCCTTTCGCGGTCT,0.75
10,TACCCGAGAGGCACGTGAGC,0.75
11,TCGGCTCCTCCCGGCCGCGC,0.75
12,TCTGAGTAACACTTTCAT,0.75
13,TCTGGCATTTTCTCATAGTC,0.75
14,TCTTCAGAGGGTGCGTCTAC,0.75
15,TGATCCGTGATGCATGCTGT,0.5
16,TGCCTTTCGCGGTCTCGCTC,0.75
17,TGGTGACCTCAGGGATAAAG,0.75
18,TGTGTCCTGCAATCGGTGGC,0.1

# Target: NSMAF
# Conditions: ASO
row,Sequence,remaining target (mRNA or protein) (fraction of control)
1,AATCTCTCCTTGGAGTAG,0.61
2,ACTCGTGAAGGTGTTCAG,0.34
3,AGATCCCGGAAGGTTCCT,0.22
4,ATACAGTCTCTCAAAGGA,0.73
5,ATCTGCCATAGAAGCATT,0.56
6,ATCTGTCCTCCTTGTCTC,0.47
7,CACAGCATATACTCTGGT,0.35
8,CATTTTATCTGCCCTAAG,0.56
9,CCTCCTTCATAGGTCAGG,0.74
10,CCTTTCTATTTTATATGG,0.74
11,CGAGACTGCAAAATAGCT,0.32
12,CTCTTCTGGAGAAAGTCC,0.67
13,CTGCAGCATGTAGCTCTC,0.83
14,CTTCAGGCTATTGACTAG,0.46
15,GACTCCCATACATGAACT,0.51
16,GAGTGTTATCTGGACCAC,0.28
17,GCATGGCTACCTTCTCAT,0.15
18,GCCGTGCCTCCTTTTGTA,0.47
19,GGCTCTATGCTGTTCAAA,0.39
20,GGCTGGGATATTGAATCT,0.72
21,GTCTCCACAACATCTTCC,0.86
22,GTGATTCCAGTAACTGCT,0.36
23,TACACTGACATCATGTTC,0.43
24,TATGACAGTGGCATCTCC,0.65
25,TCAAGGCAGGATGCTCTG,0.23
26,TGGAAACACAGGGTACTG,0.37
27,TGTCAGTAGTCTCTCCAG,0.25
28,TGTGTCCGTGATGCACAC,0.24
29,TGTGTGGCCCTGTATTCT,0.38
30,TGTTGAACATTCTATCTG,0.79

# Target: SELE
# Conditions: ASO
row,Sequence,remaining target (mRNA or protein) (fraction of control)
1,ACCACACTGGTATTTCACAC,0.67
2,ACCTCTGCTGTTCTGATCCT,0.17
3,ACGTTTGGCCTCATGGAAGT,0.35
4,CAATCATGACTTCAAGAGTTC,0.77
5,CACAATCCTTAAGAACTCTTT,0.31
6,CAGCCAAGAACAGCT,0.5
7,CAGCCAAGAACAGCTGG,0.62
8,CCAAAGTGAGAGCTGAGAGA,0.36
9,CCAATCATGACTTCAAGAGTT,0.32
10,CCCAAAGGTTTAGGCTTG,0.61
11,CGTTCTGCACTTACCGTTTTG,0.52
12,CTGATTCAAGGCTTTGGCAG,0.55
13,CTGCTGCCTCTGTCTCAGGT,0.07
14,CTGTGAAGCAATCATGAC,0.96
15,CTTTCCTGGGGAGATAAA,0.96
16,GAAATACTTTCCTCCGTTTTG,≥ 1
17,GAAATACTTTCCTGGGGAGAT,0.81
18,GAAGTCAGCCAAGAACAGCT,0.5

row,Sequence,remaining target (mRNA or protein) (fraction of control)
1,GACAATATACAAACCTTCCAT,0.65
2,GACTTCAAGAGTTCT,0.82
3,GAGTTCTTTTCACCC,0.63
4,GATGTGAAGTCAGCCAA,0.51
5,GCATGTCACAGCTGTAACAAA,0.5
6,GGAATGCAAAGCACATCCAT,0.71
7,GGCTTGAAATACTTTCCT,0.84
8,GGGCCAGAGACCCGAGGAGA,0.46
9,GGGGAGATAAAACACAAAATG,0.79
10,GTATGGAAGATTATAATATAT,0.59
11,GTTCACAACTGAAAAAGAAAC,0.51
12,GTTTAAGGCAGCATCCTAAGA,0.38
13,TATAGGAGTTTTGATGTGAA,0.74
14,TCACCCAAAGGTTTAGGCTTG,0.1
15,TCCTCTCTTCCAGAGCACCC,≥ 1
16,TGAAGCAATCATGACTTCAAG,≥ 1 and 0.51
17,TGAAGTCAGCCAAGAACAGCT,0.08
18,TTCCCCAGATGCACCTGTTT,0.02
